Experimental data published in patent publication US20220265657A1, “ADMINISTRATION METHOD AND DOSAGE REGIMEN FOR TREATMENT OF NEURODEGENERATIVE DISEASES USING TRAMETINIB AND MARKERS” (GENUV INC., priority 2019, published 2022).
Read-outs that look alike come from different tables or passages of the source.

Tests used:
[1] = test system: SH-SY5Y cells; experiment: Western blot of SH-SY5Y cell lysates; type: cell-based
Description: (§1) Cell culture: SH-SY5Y neuroblastoma cells were cultured at 37° C., 5% CO2., in Dulbecco's Modified Eagle Medium/Ham's F-12 nutrient mixture (DMEM/F12) (Invitrogen, Carlsbad, Calif.) supplemented with 10% heat-inactivated fetal bovine serum containing 100 units/ml penicillin, 100 μg/ml streptomycin. Primary cortical neuron cultures were derived from embryo day 18 (E18) from ICR mice. The dissociated cells were plated on glass cover slips coated with poly-D-lysine in Neurobasal medium supplemented with 2% B27 (Invitrogen), 100 units/ml penicillin, 100 μg/ml streptomycin, and 2 mM L-glutamine. Primary NSCs from normal mice were isolated from the subventricular zone (SVZ) of 8 week-old C57BL/6 mice brain. NSCs from adult Tg2576 mice brain were obtained from Seoul National University Hospital. The neurospheres were cultured as previously described (M. Y. Kim, B. S. Moon, K. Y. Choi, Isolation and maintenance of cortical neural progenitor cells in vitro. Methods Mol Biol 1018, 3-10 (2013)). For neurosphere culture from normal mice, the cells were dissociated from brain tissue and grown in N2 medium in 25 cm^2 flasks (SPL, Gyeonggi-do, Korea) in suspension. bFGF (20 ng/ml, Peprotech, Princeton, N.J.) and human EGF (20 ng/ml, Peprotech) were added to the media to allow the cells to form neurospheres. For analyses, NSCs were cultured as a monolayer. For differentiation of NSCs, the neurospheres were dissociated with TrypLE (Invitrogen), plated on 15 μg/ml poly-L-ornithine-(Sigma-Aldrich, St. Louis, Mo.) and 10 μg/ml fibronectin (Gibco)-coated plates, and cultured in bFGF- and EGF-depleted N2 medium for 2 days. For neurosphere culture from Tg2576 mice, the cells were grown in DMEM/F12 supplemented with B27 supplements in 75 cm^2 flasks (SPL) in suspension. bFGF (10 ng/ml) and human EGF (10 ng/ml) were added to the media to allow the cells to form neurospheres. For inducing differentiation and AP expression, the neurospheres were dissociated with pipetting, plated on 15 μg/ml poly-L-ornithine- and 10 μg/ml fibronectin (Gibco)-coated plates, and cultured in bFGF- and EGF-depleted medium for 2 days.
(§2) Lysates were centrifuged at 13,000 rpm for 20 min at 4° C., and the protein content in the supernatant was determined using the Bradford assay (Bio-rad, Hercules, Calif.). For subcellular fractionation, cells were lysed with lysis buffer (250 mM Sucrose, 20 mM HEPES, pH 7.4, 10 mM KCl, 1.5 mM MgCl2, 1 mM EGTA, 1 mM EDTA, 1 mM DTT) containing protease inhibitor for 30 min on ice, followed by centrifugation at 720 g for 5 min at 4° C. Supernatants were centrifuged at 15,000 rpm for 10 min at 4° C., and the resulting supernatant was used as the cytosol fraction. After centrifugation at 720 g for 5 min, pellets were washed with lysis buffer and dissolved in nuclear lysis buffer (50 mM Tris HCl, pH 8.0, 150 mM NaCl, 1% NP40, 0.5% sodium deoxycholate, 0.1% SDS, 10% glycerol) as the nuclear fraction. Protein from each sample was subjected to 8%˜15% SDS-PAGE, and the resolved proteins were transferred to nitrocellulose or polyvinylidene fluoride membrane. The membranes were blocked with 5% nonfat milk powder in Tris-buffered saline/Tween 20 (TBST) for 1 h at room temperature, then incubated with anti-phospho-ERK (Cell signaling), anti-ERK (Cell signaling), anti-LAMP1 (Abcam), anti-LC3 (Cell signaling), anti-cathepsin B (Cell signaling), anti-p62 (Cell signaling), anti-p62 (5114, Cell signaling), anti-phospho-mTOR (5536, Cell signaling), anti-mTOR (2983, Cell signaling), anti-phospho-ULK1 (14202, Cell signaling), anti-ULK1 (8054, Cell signaling), anti-TFEB (852501, Biolegend), and anti-GAPDH (Cell signaling) overnight at 4° C.

[2] = Pharmacokinetic analysis, brain and plasma concentration after single oral administration; type: in vivo; conditions: normal mice
Description: Trametinib treatment: Trametinib (Medchemexpress, Monmouth Junction, N.J.) was micronized and suspended in the vehicle containing 5% mannitol, 1.5% hydroxypropyl methylcellulose and 0.2% sodium lauryl sulfate. For pharmacokinetic analysis, 0.05, 0.2 and 0.8 mg/kg of trametinib were orally administered to 7-week-old normal mice (ICR, n=5 per group) as a single administration. […] For studies on the change in pERK expression in normal mice and whole cell RNA sequencing study, 0.1 mg/kg/day of trametinib (in 4% DMSO+96% corn oil) was orally administered to 6-week old C57BL/6 mice (n=3 per group). Mice were sacrificed after 1, 2, 3, or 4 weeks of administration. 5XFAD mice (male, n=7˜10 per group) were divided into vehicle and trametinib treated groups. 12-month old mice received vehicle or 0.1 mg/kg of trametinib for 1 month by oral gavage once a day (These mice are referred to as “13-month old 5XFAD mice” in the Examples). […] Blood was obtained after completion of treatment.

[3] = test system: primary cortical neurons; experiment: Dendritic spine formation in primary cortical neurons; type: cell-based, ICR mice
Description: as §1, with “For inducing differentiation and AP expression, the neurospheres were dissociated with pipetting, plated on 15 μg/ml poly-L-ornithine- and 10 μg/ml fibronectin (Gibco)-coated plates, and cultured in bFGF- and EGF-depleted medium for 2 days.” left out

[4] = test system: 5XFAD mice; conditions: for decrease of plasma cathepsin B level compared to vehicle treated 5XFAD mice: 8-month-old 5XFAD mice, 3 months oral
[5] = test system: primary cortical neurons; experiment: Western blot of primary cortical neurons; type: cell-based, ICR mice
Description: as §2

[6] = test system: neurons and neural stem cells (NSCs); conditions: in vitro, even in the presence of cytotoxic oligomers of Aβ1-42; cited from earlier work
[7] = SH-SY5Y cells treated with Aβ1-42
[8] = SH-SY5Y cells, in the presence of Aβ1-42 oligomers

CC(=O)Nc1cccc(-n2c(=O)n(C3CC3)c(=O)c3c(Nc4ccc(I)cc4F)n(C)c(=O)c(C)c32)c1 [trametinib]
increase of LC3-II/LC-I level compared to Aβ1-42 treated alone cells [1, 7]: 65% | increase of mature cathepsin B level compared to Aβ1-42 treated alone cells [1, 7]: 44% | nuclear translocation of TFEB [1, 8]: induced nuclear translocation of TFEB | p62 as a marker of autophagic flux [1, 8]: Degradation of p62 | phosphorylation of mTOR and ULK1 on Ser758 [1, 8]: inhibited the phosphorylation | Kp ([2]; ICR, mouse, brain and plasma, 0.8 mg/kg, highest dose group, read-out: brain/plasma exposure ratio (AUC)): 0.477 | penetration of the blood-brain barrier (BBB) [2]: confirmed to penetrate the blood-brain barrier (BBB) | increase in number of dendritic spines compared to vehicle treated group ([3]; 100 nM): 24% | increase in number of dendritic spines compared to Aβ1-42 treated alone group ([3]; Aβ1-42 oligomer-induced neurotoxic conditions): 80% | decrease of plasma cathepsin B level compared to vehicle treated 5XFAD mice ([4]; 0.05 mg/kg/day): 56.16% | decrease of plasma cathepsin B level compared to vehicle treated 5XFAD mice ([4]; 0.1 mg/kg/day): 99.2% | plasma cathepsin B level compared to 5XFAD-vehicle group ([4]; 13-month-old 5XFAD mice, 0.1 mg/kg/day, 1 month oral): decreasing trend | decrease of p-mTOR/mTOR ratio compared to Aβ1-42 treated alone group ([5]; 100 nM, co-treated with Aβ1-42): 67% | decrease of pULK1(S757) to total ULK1 ratio compared to Aβ1-42 treated alone neurons ([5]; co-treated with Aβ1-42): 29% | increase of mature cathepsin B level compared to vehicle treated control (CTL) ([5]; primary cortical neurons): 54% | increase of mature cathepsin B level compared to Aβ1-42 treated alone group ([5]; primary cortical neurons treated with Aβ1-42 oligomers): 73% | neuronal differentiation and survival of neurons and NSCs [6]: effective in inducing neuronal differentiation and promoting survival of neurons and neural stem cells (NSCs)
